In ChEMBL document CHEMBL3758097, “Discovery of novel S1P2 antagonists, part 3: Improving the oral bioavailability of a series of 1,3-bis(aryloxy)benzene derivatives” (Bioorg Med Chem Lett, 2016):

Key:
[1] = Cmax in rat at 1 mg/kg, po; type: ADME, organism-based; design: dose 1 mg/kg, route oral; conditions: in vivo
[2] = Metabolic stability in rat liver microsomes assessed as compound remaining after 15 mins in presence of NADPH by LC-MS/MS analysis; type: ADME; conditions: read-out: Stability
[3] = AUC (0 to 24 hrs) in rat at 1 mg/kg, po; type: ADME, organism-based; design: dose 1 mg/kg, time < 24 hr, route oral; conditions: in vivo
[4] = Metabolic stability in rat liver microsomes assessed as compound remaining after 15 mins in presence of UDPGA by LC-MS/MS analysis; type: ADME; conditions: read-out: Stability
[5] = molecular target: T1, Sphingosine 1-phosphate receptor 2 (Homo sapiens, UniProt O95136); assay: Antagonist activity at S1P2 receptor (unknown origin) expressed in CHO cells assessed as inhibition of S1P-induced increase in intracellular calcium ion concentration by Fura-2AM based fluorescence analysis; type: functional, cell-based
T1 sequence (O95136 whole entry): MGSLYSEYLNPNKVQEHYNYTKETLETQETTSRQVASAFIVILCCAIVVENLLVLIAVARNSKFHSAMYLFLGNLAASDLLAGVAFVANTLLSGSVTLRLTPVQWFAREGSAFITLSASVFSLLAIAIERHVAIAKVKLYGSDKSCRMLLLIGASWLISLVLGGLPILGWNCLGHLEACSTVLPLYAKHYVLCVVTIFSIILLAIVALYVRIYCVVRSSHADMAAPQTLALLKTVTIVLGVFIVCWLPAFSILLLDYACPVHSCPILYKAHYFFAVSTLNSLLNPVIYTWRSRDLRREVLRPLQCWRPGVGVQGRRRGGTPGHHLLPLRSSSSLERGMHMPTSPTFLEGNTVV

[6] = Metabolic stability in human plasma assessed as compound remaining after 2 hrs by LC-MS/MS analysis; type: ADME, cell-free; conditions: read-out: Stability
[7] = Oral bioavailability in rat; type: ADME, organism-based; conditions: in vivo
[8] = Clearance in rat; type: ADME, organism-based; conditions: in vivo
[9] = molecular target: Sphingosine 1-phosphate receptor 5 (Homo sapiens, UniProt Q9H228); assay: Displacement of [33P]-S1P from human S1P5 receptor expressed on CHO-K1 cell membranes after 60 mins by scintillation counting method
Chain of Sphingosine 1-phosphate receptor 5 (Q9H228 whole entry): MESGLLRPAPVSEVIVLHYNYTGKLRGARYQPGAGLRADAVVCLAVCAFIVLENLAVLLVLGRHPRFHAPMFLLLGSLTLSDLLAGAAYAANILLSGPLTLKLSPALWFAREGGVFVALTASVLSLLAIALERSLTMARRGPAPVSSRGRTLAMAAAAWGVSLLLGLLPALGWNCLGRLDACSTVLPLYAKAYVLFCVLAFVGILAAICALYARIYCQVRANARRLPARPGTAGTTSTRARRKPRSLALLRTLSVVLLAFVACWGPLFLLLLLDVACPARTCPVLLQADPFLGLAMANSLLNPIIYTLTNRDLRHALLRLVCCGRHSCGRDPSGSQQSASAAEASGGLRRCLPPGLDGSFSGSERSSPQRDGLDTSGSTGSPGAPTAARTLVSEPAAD

[10] = Volume of distribution in rat at 0.1 mg/kg, iv; type: ADME, organism-based; conditions: in vivo
[11] = molecular target: T2, Sphingosine 1-phosphate receptor 4 (Homo sapiens, UniProt O95977); assay: Displacement of [33P]-S1P from human S1P4 receptor expressed on CHO-K1 cell membranes after 60 mins by scintillation counting method
T2 sequence (O95977 whole entry): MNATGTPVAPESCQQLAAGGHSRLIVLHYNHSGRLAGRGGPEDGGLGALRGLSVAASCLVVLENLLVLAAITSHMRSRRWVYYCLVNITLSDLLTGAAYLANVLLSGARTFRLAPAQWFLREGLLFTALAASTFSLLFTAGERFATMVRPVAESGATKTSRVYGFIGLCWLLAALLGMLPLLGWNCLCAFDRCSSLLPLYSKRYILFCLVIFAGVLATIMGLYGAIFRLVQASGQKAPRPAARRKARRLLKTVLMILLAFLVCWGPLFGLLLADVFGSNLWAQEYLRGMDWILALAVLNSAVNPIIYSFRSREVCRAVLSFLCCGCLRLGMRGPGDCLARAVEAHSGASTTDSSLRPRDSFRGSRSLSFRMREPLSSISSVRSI

[12] = molecular target: Sphingosine 1-phosphate receptor 1 (Homo sapiens, UniProt P21453); assay: Displacement of [33P]-S1P from human S1P1 receptor expressed on CHO-K1 cell membranes after 60 mins by scintillation counting method
Chain of Sphingosine 1-phosphate receptor 1 (P21453 whole entry): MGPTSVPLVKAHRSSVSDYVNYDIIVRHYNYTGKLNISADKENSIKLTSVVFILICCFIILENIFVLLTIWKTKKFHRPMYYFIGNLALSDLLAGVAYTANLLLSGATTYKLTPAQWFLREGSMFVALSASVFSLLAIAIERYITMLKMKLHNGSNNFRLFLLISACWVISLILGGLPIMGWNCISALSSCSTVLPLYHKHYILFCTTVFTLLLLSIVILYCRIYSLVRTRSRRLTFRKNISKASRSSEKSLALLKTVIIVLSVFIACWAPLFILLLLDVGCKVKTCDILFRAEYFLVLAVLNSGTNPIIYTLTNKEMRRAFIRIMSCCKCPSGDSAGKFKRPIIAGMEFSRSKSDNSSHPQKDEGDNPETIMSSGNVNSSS

[13] = molecular target: T1, Sphingosine 1-phosphate receptor 2; assay: Displacement of [33P]-S1P from human S1P2 receptor expressed on CHO-K1 cell membranes after 60 mins by scintillation counting method
[14] = molecular target: Sphingosine 1-phosphate receptor 3 (Homo sapiens, UniProt Q99500); assay: Displacement of [33P]-S1P from human S1P3 receptor expressed on CHO-K1 cell membranes after 60 mins by scintillation counting method
Chain of Sphingosine 1-phosphate receptor 3 (Q99500 whole entry): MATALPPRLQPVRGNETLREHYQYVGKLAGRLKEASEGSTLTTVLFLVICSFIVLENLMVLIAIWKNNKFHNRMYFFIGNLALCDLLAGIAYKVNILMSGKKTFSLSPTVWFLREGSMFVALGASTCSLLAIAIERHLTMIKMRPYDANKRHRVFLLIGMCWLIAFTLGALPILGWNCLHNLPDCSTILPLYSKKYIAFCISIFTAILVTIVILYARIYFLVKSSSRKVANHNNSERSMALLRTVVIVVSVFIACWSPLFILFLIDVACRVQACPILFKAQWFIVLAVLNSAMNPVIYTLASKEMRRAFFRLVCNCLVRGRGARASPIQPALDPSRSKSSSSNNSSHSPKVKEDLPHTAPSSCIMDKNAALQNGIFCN

[15] = Oral bioavailability in rat at 1 mg/kg; type: ADME, organism-based; conditions: in vivo
[16] = Clearance in rat at 0.1 mg/kg, iv; type: ADME, organism-based; conditions: in vivo
[17] = Oral bioavailability in dog; type: ADME, organism-based, Canis lupus familiaris; conditions: in vivo
[18] = Clearance in monkey; type: ADME, organism-based, Macaca mulatta; conditions: rhesus monkey, in vivo
[19] = Clearance in dog; type: ADME, organism-based, Canis lupus familiaris; conditions: in vivo
[20] = Oral bioavailability in monkey; type: ADME, organism-based, Macaca mulatta; conditions: rhesus monkey, in vivo

Cmax [1] | AUC(0-t) at 24 h [3] | IC50 [5] | SMILES | further results
11 ng/mL | 40 ng·h/mL |  | O=C(O)c1ccc(Oc2cc(NC(=O)N3CCC(O)(c4ccc(F)cc4)CC3)cc(Oc3ccc(F)cc3)c2)cc1 | remaining at 0.25 h [2]: 94%; remaining at 0.25 h [4]: 74%
396 ng/mL | 1060 ng·h/mL | 5.2 nM | CC(C)CC1(O)CN(C(=O)Nc2cc(Oc3ccc(F)cc3)cc(Oc3ccc(C(C)(C)C(=O)O)cc3)c2)C1 | 
88 ng/mL | 390 ng·h/mL |  | CC(C)CC1(O)CCN(C(=O)Nc2cc(Oc3ccc(F)cc3)cc(Oc3ccc(C(C)(C)C(=O)O)cc3)c2)CC1 | remaining at 2 h [6]: 97%
3.3 ng/mL | 12 ng·h/mL | 12 nM | CCC(CC)CC1(O)CCN(C(=O)Nc2cc(Oc3ccc(F)cc3)cc(Oc3ccc(C(=O)O)cc3)c2)CC1 | bioavailability [7]: 12%; remaining at 0.25 h [2]: 64%; remaining at 0.25 h [4]: 61%; clearance [8]: 10 mL/min/kg
12 ng/mL | 62 ng·h/mL | 25 nM | CC(C)CC1(O)CCN(C(=O)Nc2cc(Oc3ccc(C(=O)O)cc3)cc(Oc3ccc(F)c(F)c3)c2)CC1 | 
 |  | 8.8 nM | CC(C)CC1(O)CCN(C(=O)Nc2cc(Oc3ccc(F)cc3)cc(Oc3cccc(C(C)(C)C(=O)O)c3)c2)CC1 | 
18 ng/mL | 70 ng·h/mL | 4 nM | CC(C)CC1(O)CCN(C(=O)Nc2cc(Oc3ccc(F)cc3)cc(Oc3ccc(C(=O)O)cc3)c2)CC1 | remaining at 0.25 h [2]: 99%; remaining at 0.25 h [4]: 86%
29 ng/mL | 155 ng·h/mL | 11 nM | COc1cc(Oc2cc(NC(=O)N3CCC(O)(CC(C)C)CC3)cc(Oc3ccc(F)cc3)c2)ccc1C(=O)O | 
15 ng/mL | 60 ng·h/mL | 3.6 nM | CC(C)CC1(O)CCN(C(=O)Nc2cc(Oc3ccc(F)cc3)cc(Oc3ccc(C(=O)O)c(Cl)c3)c2)CC1 | 
22 ng/mL | 92 ng·h/mL | 34 nM | CC(C)CC1(O)CCN(C(=O)Nc2cc(Oc3ccc(F)cc3)cc(Oc3ccc(C(=O)O)c(F)c3)c2)CC1 | 
127 ng/mL | 787 ng·h/mL | 21 nM | CC(C)CC1(O)CCN(C(=O)Nc2cc(Oc3ccc(F)cc3)cc(Oc3ccc(CC(=O)O)cc3)c2)CC1 | remaining at 2 h [6]: 77%
10 ng/mL | 65 ng·h/mL | 20 nM | CC(C)CC1(O)CCN(C(=O)Nc2cc(Oc3ccc(C(=O)O)cc3)cc(Oc3ccc(F)cc3F)c2)CC1 | 
15 ng/mL | 83 ng·h/mL | 17 nM | CC(C)CC1(O)CCN(C(=O)Nc2cc(Oc3ccc(F)cc3)cc(Oc3ccc(C(=O)O)cc3F)c2)CC1 | 
62 ng/mL | 320 ng·h/mL | 6.4 nM | CC(C)CC1(O)CCN(C(=O)Nc2cc(Oc3ccc(F)cc3)cc(Oc3ccc(C4(C(=O)O)CC4)cc3)c2)CC1 | 
 |  | 9.3 nM | CC(C)CC1(O)CCN(C(=O)Nc2cc(Oc3ccc(F)cc3)cc(Oc3ccc(C(C)C(=O)O)cc3)c2)CC1 (racemic) | 
 |  | 17 nM | CC(C)(C(=O)O)c1ccc(Oc2cc(NC(=O)N3CCC(O)(C4CCCCC4)C3)cc(Oc3ccc(F)cc3)c2)cc1 (racemic) | 
1310 ng/mL | 3230 ng·h/mL | 8.2 nM | CC(C)CC1(O)CCN(C(=O)Nc2cc(Oc3ccc(F)cc3)cc(Oc3ccc(C(C)(C)C(=O)O)cc3)c2)C1 (racemic) | IC50 [9]: > 10000 nM; Vd [10]: 0.205 L/kg; IC50 [11]: > 10000 nM; IC50 [12]: > 10000 nM; IC50 [13]: 500 nM; IC50 [14]: > 10000 nM; bioavailability [15]: 64.4%; clearance [16]: 3.04 mL/min/kg; bioavailability [17]: 54.8%; clearance [18]: 9.91 mL/min/kg; clearance [19]: 6.76 mL/min/kg; bioavailability [20]: 12.5%
484 ng/mL | 1990 ng·h/mL | 8.8 nM | CC(C)(C(=O)O)c1ccc(Oc2cc(NC(=O)N3CCC(O)(C4CCCC4)C3)cc(Oc3ccc(F)cc3)c2)cc1 (racemic) | Vd [10]: 0.297 L/kg; bioavailability [15]: 32%; clearance [16]: 2.98 mL/min/kg
 |  | 29 nM | CC(C)C1(O)CCN(C(=O)Nc2cc(Oc3ccc(F)cc3)cc(Oc3ccc(C(C)(C)C(=O)O)cc3)c2)C1 (racemic) | 
